The text below walks through data of patent US9067914B1, “Tropomyosin-related kinase (TRK) inhibitors” (Genzyme Corporation, priority 2013, dated 2015).

Each structure is given as a SMILES string.

As usually defined, the IC50 is the concentration that inhibits the measured activity by half.

Test [1] has as its target TrkA (Homo sapiens (Human), UniProt P04629). Description: TrkA activity, off-chip mobility shift assay (LabChip 3000). The class given is biochemical. The settings on record: 55 μM ATP (ATP Km); n/d = none detected. From the text: (§1) Reagents and consumables were purchased from Sigma Aldrich, Carna Biosciences, or Caliper Life Sciences. All assay reaction conditions for IC50 determinations were within the linear range with respect to time and enzyme concentration. […] The LabChip 3000 separates and measures the fluorescent signal of fluorescein labeled peptide substrate and fluorescein labeled peptide product present in each well. Results are expressed as percent conversion by measuring peak height for both the substrate and product and dividing the product peak height by the sum of peak heights for both substrate and product.

Test [2] deals with TrkB (Homo sapiens (Human), UniProt Q16620). The experiment in a line: TrkB activity, off-chip mobility shift assay (LabChip 3000). The class given is biochemical. The settings on record: 70 μM ATP (ATP Km); n/d = none detected.
TrkB, sequence (Q16620 32-822): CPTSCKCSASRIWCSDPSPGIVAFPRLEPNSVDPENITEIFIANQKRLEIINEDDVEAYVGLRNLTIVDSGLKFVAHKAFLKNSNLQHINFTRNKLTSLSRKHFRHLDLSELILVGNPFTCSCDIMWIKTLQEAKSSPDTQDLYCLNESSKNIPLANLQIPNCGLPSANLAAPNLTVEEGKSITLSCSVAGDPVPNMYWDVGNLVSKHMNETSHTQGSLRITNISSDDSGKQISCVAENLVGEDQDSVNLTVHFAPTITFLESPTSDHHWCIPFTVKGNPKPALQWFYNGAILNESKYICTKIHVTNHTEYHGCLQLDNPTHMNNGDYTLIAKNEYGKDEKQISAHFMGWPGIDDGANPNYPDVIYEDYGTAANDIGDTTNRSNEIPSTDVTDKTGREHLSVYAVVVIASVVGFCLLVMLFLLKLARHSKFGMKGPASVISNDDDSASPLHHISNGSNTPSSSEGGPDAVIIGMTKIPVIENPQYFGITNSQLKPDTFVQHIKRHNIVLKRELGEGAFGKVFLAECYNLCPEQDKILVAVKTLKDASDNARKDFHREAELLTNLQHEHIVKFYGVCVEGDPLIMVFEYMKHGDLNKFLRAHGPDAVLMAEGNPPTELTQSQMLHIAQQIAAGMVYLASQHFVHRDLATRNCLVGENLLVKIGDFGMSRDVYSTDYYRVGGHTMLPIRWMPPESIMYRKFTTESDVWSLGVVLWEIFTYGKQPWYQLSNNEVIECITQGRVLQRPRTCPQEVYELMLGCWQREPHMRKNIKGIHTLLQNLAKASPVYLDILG
Excerpt: as §1

TrkA, sequence (P04629 33-796): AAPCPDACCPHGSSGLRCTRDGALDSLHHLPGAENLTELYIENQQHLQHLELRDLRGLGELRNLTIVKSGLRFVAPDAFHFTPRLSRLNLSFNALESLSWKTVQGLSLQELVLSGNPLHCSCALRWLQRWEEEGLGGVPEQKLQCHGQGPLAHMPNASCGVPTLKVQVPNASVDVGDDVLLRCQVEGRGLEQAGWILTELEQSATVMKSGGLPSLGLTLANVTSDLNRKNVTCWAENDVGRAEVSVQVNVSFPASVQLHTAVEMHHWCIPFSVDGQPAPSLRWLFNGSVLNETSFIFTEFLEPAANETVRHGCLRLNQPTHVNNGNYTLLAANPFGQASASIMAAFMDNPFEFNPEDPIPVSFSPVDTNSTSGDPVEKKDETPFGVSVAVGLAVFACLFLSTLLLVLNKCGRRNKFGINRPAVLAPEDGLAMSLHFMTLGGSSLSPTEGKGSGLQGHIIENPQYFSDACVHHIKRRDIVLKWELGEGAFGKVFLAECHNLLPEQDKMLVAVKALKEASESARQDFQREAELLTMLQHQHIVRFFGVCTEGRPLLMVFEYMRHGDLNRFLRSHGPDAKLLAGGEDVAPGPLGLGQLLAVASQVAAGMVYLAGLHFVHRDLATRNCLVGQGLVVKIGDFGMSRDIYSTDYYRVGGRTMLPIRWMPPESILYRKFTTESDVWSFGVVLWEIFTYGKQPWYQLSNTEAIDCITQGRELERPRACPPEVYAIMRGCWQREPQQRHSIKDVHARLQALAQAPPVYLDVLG

Consider `COc1ccc(COc2ccc(Cn3cnc4cc(-c5nnc(C6CCNCC6)o5)cnc43)cc2OC)cn1` [Ex. 3-23, 2-(3-(3-Methoxy-4-((6-methoxypyridin-3-yl)methoxy)benzyl)-3H-imidazo[4,5-b]pyridin-6-yl)-5-(piperidin-4-yl)-1,3,4-oxadiazole], for which the IC50 came to 51 nM in test [1] and 57 nM in test [2].
Take `COc1ccc(COc2ccc(Cn3cnc4cc(-n5cc(C(C)(C)N)nn5)cnc43)cc2OC)cn1` [Ex. 3-24, 2-(1-(3-(3-Methoxy-4-((6-methoxypyridin-3-yl)methoxy)benzyl)-3H-imidazo[4,5-b]pyridin-6-yl)-1H-1,2,3-triazol-4-yl)propan-2-amine]: the half-maximal inhibitory concentration (IC50) worked out at 88 nM in test [1] and 43 nM in test [2].
`COc1ccc(COc2ccc(Cn3cnc4cc(-n5cc(C6CCCNC6)nn5)cnc43)cc2OC)cn1` (stereo not drawn) [Ex. 3-25, 3-(3-Methoxy-4-((6-methoxypyridin-3-yl)methoxy)benzyl)-6-(4-(piperidin-3-yl)-1H-1,2,3-triazol-1-yl)-3H-imidazo[4,5-b]pyridine]: the IC50 worked out at 32 nM in test [1] and 18 nM in test [2].
For `COc1ccc(COc2ccc(Cn3c(N)nc4cc(N5CCN(C)CC5)ccc43)cc2OC)cn1` [Ex. 3-26, 1-(3-methoxy-4-((6-methoxypyridin-3-yl)methoxy)benzyl)-5-(4-methylpiperazin-1-yl)-1H-benzo[d]imidazol-2-amine], the IC50 in test [1] was determined as 590 nM; in test [2], 315 nM.
As to `COc1ccc(COc2cc(F)c(Cn3cnc4cc(N5CCN(C)CC5)ccc43)cc2OC)cn1` [Ex. 3-27, 1-(2-fluoro-5-methoxy-4-((6-methoxypyridin-3-yl)methoxy)benzyl)-5-(4-methylpiperazin-1-yl)-1H-benzo[d]imidazole], the figures for the IC50 in test [1] and in test [2] were 852 nM and 305 nM, respectively.
With `COc1ccc(COc2ccc(Cn3cnc4cc(N5CCN(C)CC5=O)ccc43)cc2OC)cn1` [Ex. 3-29, 1-(1-(3-Methoxy-4-((6-methoxypyridin-3-yl)methoxy)benzyl)-1H-benzo[d]imidazol-5-yl)-4-methylpiperazin-2-one], the IC50 in test [1] was 6020 nM; in test [2] it was 4280 nM.
As for `COc1ccc(COc2ccc(Cn3cnc4cc(C5=CC6(C)CCCN5C6)cnc43)cc2OC)cn1` (stereo not drawn) [Ex. 3-30, 3-(3-Methoxy-4-((6-methoxypyridin-3-yl)methoxy)benzyl)-6-(5-methyl-1-azabicyclo[3.2.1]oct-6-en-7-yl)-3H-imidazo[4,5-b]pyridine], the IC50 in test [1] was 201 nM; in test [2] it was 118 nM.
With `COc1ccc(COc2ccc(Cn3cnc4cc(C5=CC6(C)CCCN5C6)ccc43)cc2OC)cn1` (stereo not drawn) [Ex. 3-31, 1-(3-methoxy-4-((6-methoxypyridin-3-yl)methoxy)benzyl)-5-(5-methyl-1-azabicyclo[3.2.1]oct-6-en-7-yl)-1H-benzo[d]imidazole], the concentration for half-maximal inhibition (IC50) in test [1] came out at 1480 nM; in test [2], 889 nM.
On the same counts, the results for `COc1ccc(COc2ccc(Cn3cnc4cc(C5=CC6(O)CCCN5C6)cnc43)cc2OC)cn1` (stereo not drawn) [Ex. 3-32, 7-(3-(3-methoxy-4-((6-methoxypyridin-3-yl)methoxy)benzyl)-3H-imidazo[4,5-b]pyridin-6-yl)-1-azabicyclo[3.2.1]oct-6-en-5-ol] are 360 nM and 150 nM.
Consider `COc1ccc(COc2ccc(Cn3cnc4cc(C5=CC6(O)CCCN5C6)ccc43)cc2OC)cn1` (stereo not drawn) [Ex. 3-33, 7-(1-(3-Methoxy-4-((6-methoxypyridin-3-yl)methoxy)benzyl)-1H-benzo[d]imidazol-5-yl)-1-azabicyclo[3.2.1]oct-6-en-5-ol], for which the results for the IC50 in test [1] and in test [2] were 1160 nM and 372 nM, respectively.
As for `COc1ccc(COc2ccc(Cn3c(N)nc4cc(-c5cnn(C)c5)cnc43)cc2OC)cn1` [Ex. 3-35-1, 3-(3-methoxy-4-((6-methoxypyridin-3-yl)methoxy)benzyl)-6-(1-methyl-1H-pyrazol-4-yl)-3H-imidazo[4,5-b]pyridin-2-amine], the results for the IC50 in test [1] and in test [2] were 0.6 nM and 0.3 nM, respectively.
Regarding `COc1cc(Cn2c(N)nc3cc(-c4cnn(C)c4)cnc32)ccc1OCc1ccc(C(F)(F)F)nc1` [Ex. 3-35-2, 3-(3-methoxy-4-((6-(trifluoromethyl)pyridin-3-yl)methoxy)benzyl)-6-(1-methyl-1H-pyrazol-4-yl)-3H-imidazo[4,5-b]pyridin-2-amine], the IC50 in test [1] and in test [2] was 0.2 nM each time.
Take `COc1cc(Cn2c(N)nc3cc(-c4cnn(C)c4)cnc32)ccc1OCc1ccc(C(F)(F)F)cc1` [Ex. 3-35-3, 3-(3-methoxy-4-((4-(trifluoromethyl)benzyl)oxy)benzyl)-6-(1-methyl-1H-pyrazol-4-yl)-3H-imidazo[4,5-b]pyridin-2-amine]: the half-maximal inhibitory concentration (IC50) in test [1] worked out at 0.2 nM; in test [2] it was 0.3 nM.
For `COc1cc(Cn2c(N)nc3cc(-c4cnn(C)c4)cnc32)ccc1OCc1ccc(C2CC2)nc1` [Ex. 3-35-4, 3-(4-((6-cyclopropylpyridin-3-yl)methoxy)-3-methoxybenzyl)-6-(1-methyl-1H-pyrazol-4-yl)-3H-imidazo[4,5-b]pyridin-2-amine], the concentration for half-maximal inhibition (IC50) in test [1] and in test [2] was 0.2 nM in each case.
On to `COc1cc(Cn2c(N)nc3cc(-c4cnn(C)c4)cnc32)ccc1OCc1csc(C)n1` [Ex. 3-35-5, 3-(3-methoxy-4-((2-methylthiazol-4-yl)methoxy)benzyl)-6-(1-methyl-1H-pyrazol-4-yl)-3H-imidazo[4,5-b]pyridin-2-amine], for which the IC50 in test [1] came to 0.5 nM; in test [2], 0.2 nM.
For `COc1ccc(COc2ccc(Cn3c(N)nc4cc(-c5ccccc5)cnc43)cc2OC)cn1` [Ex. 3-36, 3-(3-methoxy-4-((6-methoxypyridin-3-yl)methoxy)benzyl)-6-phenyl-3H-imidazo[4,5-b]pyridin-2-amine], the IC50 in test [1] was found to be 6 nM; in test [2], 4 nM.
Take `COc1ccc(COc2ccc(Cn3c(N)nc4cc(-c5ccc(F)cc5)cnc43)cc2OC)cn1` [Ex. 3-37-1, 6-(4-fluorophenyl)-3-(3-methoxy-4-((6-methoxypyridin-3-yl)methoxy)benzyl)-3H-imidazo[4,5-b]pyridin-2-amine]: the 50% inhibitory concentration (IC50) worked out at 9 nM in test [1] and 4 nM in test [2].
Regarding `COc1ccc(COc2ccc(Cn3c(N)nc4cc(-c5ccn(C)n5)cnc43)cc2OC)cn1` [Ex. 3-37-2, 3-(3-methoxy-4-((6-methoxypyridin-3-yl)methoxy)benzyl)-6-(1-methyl-1H-pyrazol-3-yl)-3H-imidazo[4,5-b]pyridin-2-amine], the IC50 came to 3 nM in test [1] and 2 nM in test [2].
For `COc1ccc(COc2ccc(Cn3c(N)nc4cc(-c5cncnc5)cnc43)cc2OC)cn1` [Ex. 3-37-3, 3-(3-methoxy-4-((6-methoxypyridin-3-yl)methoxy)benzyl)-6-(pyrimidin-5-yl)-3H-imidazo[4,5-b]pyridin-2-amine], the figures for the IC50 in test [1] and in test [2] were 51 nM and 16 nM, respectively.
With `COc1ccc(COc2ccc(Cn3c(N)nc4cc(-c5c(C)nn(C)c5C)cnc43)cc2OC)cn1` [Ex. 3-37-4, 3-(3-methoxy-4-((6-methoxypyridin-3-yl)methoxy)benzyl)-6-(1,3,5-trimethyl-1H-pyrazol-4-yl)-3H-imidazo[4,5-b]pyridin-2-amine], the half-inhibitory concentration (IC50) turned out to be 14 nM in test [1] and 13 nM in test [2].
For `COc1ccc(COc2ccc(Cn3c(N)nc4cc(-c5ccncc5)cnc43)cc2OC)cn1` [Ex. 3-37-5, 3-(3-methoxy-4-((6-methoxypyridin-3-yl)methoxy)benzyl)-6-(pyridin-4-yl)-3H-imidazo[4,5-b]pyridin-2-amine], the half-maximal inhibitory concentration (IC50) in test [1] came to 2 nM; in test [2], 0.7 nM.
The matching figures for `COc1ccc(COc2ccc(Cn3c(N)nc4cc(-c5cccnc5)cnc43)cc2OC)cn1` [Ex. 3-37-6, 3-(3-methoxy-4-((6-methoxypyridin-3-yl)methoxy)benzyl)-6-(pyridin-3-yl)-3H-imidazo[4,5-b]pyridin-2-amine]: 5 nM and 2 nM.
For the molecule `COc1ccc(COc2ccc(Cn3c(N)nc4cc(-c5ccccn5)cnc43)cc2OC)cn1` [Ex. 3-38, 3-(3-methoxy-4-((6-methoxypyridin-3-yl)methoxy)benzyl)-6-(pyridin-2-yl)-3H-imidazo[4,5-b]pyridin-2-amine], the IC50 was found to be 4 nM in test [1] and 2 nM in test [2].
The matching figures for `COc1cc(Cn2c(N)nc3cc(-c4cnn(C)c4)cnc32)ccc1OCc1ccc(C(F)(F)C(F)(F)F)cc1` [Ex. 3-39, 3-(3-methoxy-4-((4-(perfluoroethyl)benzyl)oxy)benzyl)-6-(1-methyl-1H-pyrazol-4-yl)-3H-imidazo[4,5-b]pyridin-2-amine]: 0.3 nM and 0.6 nM.
Consider `COc1cc(Cn2c(N)nc3cc(-c4cnn(C)c4)cnc32)ccc1OCc1ccc(OC(F)(F)F)cc1` [Ex. 3-40-1, 3-(3-methoxy-4-((4-(trifluoromethoxy)benzyl)oxy)benzyl)-6-(1-methyl-1H-pyrazol-4-yl)-3H-imidazo[4,5-b]pyridin-2-amine], for which the IC50 in test [1] and in test [2] was 0.2 nM in each case.
Turning to `COc1cc(Cn2c(N)nc3cc(-c4cnn(C)c4)cnc32)ccc1OCc1ccc(SC(F)(F)F)cc1` [Ex. 3-40-2, 3-(3-methoxy-4-((4-((trifluoromethyl)thio)benzyl)oxy)benzyl)-6-(1-methyl-1H-pyrazol-4-yl)-3H-imidazo[4,5-b]pyridin-2-amine], the concentration for half-maximal inhibition (IC50) in test [1] stood at 0.2 nM; in test [2], 0.6 nM.
For the molecule `COc1cc(Cn2c(N)nc3cc(-c4cnn(C)c4)cnc32)ccc1OCc1ccc(C(C)C)nc1` [Ex. 3-40-3, 3-(4-((6-isopropylpyridin-3-yl)methoxy)-3-methoxybenzyl)-6-(1-methyl-1H-pyrazol-4-yl)-3H-imidazo[4,5-b]pyridin-2-amine], the IC50 in test [1] and in test [2] was 0.2 nM in each case.
